Test [1] has as its target PHD1 (EGLN2) (Homo sapiens (Human), UniProt Q96KS0). The test is described as follows: HIF-PH assay (14CO2 capture), PHD1 enzyme inhibition. Format: biochemical.
Test [2] deals with PHD2 (EGLN1) (Homo sapiens (Human), UniProt Q9GZT9). The test is described as follows: HIF-PH assay (14CO2 capture), PHD2 enzyme inhibition. Format: biochemical. The settings on record: Table 1.
The mark [3] stands for this setting: Table 1, individual measurement, read-out: IC50 (μM) PHD1.
Where [4] appears, read: Table 1, ratio of the IC50 of the compound for each enzyme.
Setting [5] is: individual measurement, read-out: IC50 (μM) PHD2.

Structures are written as SMILES. Several values for one entry are separate records, joined by “and”; a condition that tells them apart may be missing. Equal values may be shown once. Read-outs that look alike come from different tables or passages of the source.

By IC50 is commonly meant the point on the concentration scale where inhibition reaches its midpoint.

Chain of PHD2 (EGLN1) (Q9GZT9 whole entry): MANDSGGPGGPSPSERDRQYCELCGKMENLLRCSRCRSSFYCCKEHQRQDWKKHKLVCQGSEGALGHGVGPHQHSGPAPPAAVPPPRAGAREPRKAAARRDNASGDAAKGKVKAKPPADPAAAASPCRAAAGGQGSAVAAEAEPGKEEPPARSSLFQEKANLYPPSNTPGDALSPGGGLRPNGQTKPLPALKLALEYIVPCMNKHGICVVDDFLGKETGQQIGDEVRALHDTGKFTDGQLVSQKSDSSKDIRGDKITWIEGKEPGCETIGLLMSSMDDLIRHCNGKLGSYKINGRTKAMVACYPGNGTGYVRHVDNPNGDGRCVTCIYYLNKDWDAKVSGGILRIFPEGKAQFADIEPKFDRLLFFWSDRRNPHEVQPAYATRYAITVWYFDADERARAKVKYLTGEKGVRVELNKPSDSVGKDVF
Chain of PHD1 (EGLN2) (Q96KS0 whole entry): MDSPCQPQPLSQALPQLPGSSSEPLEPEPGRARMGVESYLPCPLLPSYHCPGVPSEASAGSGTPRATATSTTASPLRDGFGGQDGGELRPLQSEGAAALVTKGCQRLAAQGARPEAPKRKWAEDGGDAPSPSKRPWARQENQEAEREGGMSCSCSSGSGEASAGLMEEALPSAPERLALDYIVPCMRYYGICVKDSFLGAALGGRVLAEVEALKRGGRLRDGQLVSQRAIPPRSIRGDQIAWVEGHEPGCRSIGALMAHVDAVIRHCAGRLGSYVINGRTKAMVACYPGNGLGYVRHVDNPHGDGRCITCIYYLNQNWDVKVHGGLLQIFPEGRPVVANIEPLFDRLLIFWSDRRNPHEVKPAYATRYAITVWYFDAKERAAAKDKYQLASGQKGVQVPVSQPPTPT

On to `CCNC(=O)N[C@H](CCNC(=O)c1nc(C#N)c2cc(Oc3ccccc3)ccc2c1O)C(=O)O` [Compound 52, (R)-4-(1-Cyano-4-hydroxy-7-phenoxyisoquinoline-3-carboxamido)-2-(3-ethylureido)butanoic acid], for which the IC50 in test [1] (setting [3]) came out at 1.33 µM; in test [2] (setting [5]), 24.7 µM. Besides, the PHD2/PHD1 in test [1] (setting [4]) came out at 18.6.
In the case of `COC(=O)N[C@H](CCNC(=O)c1nc(C#N)c2cc(Oc3ccccc3)ccc2c1O)C(=O)O` [Compound 53, (R)-4-(1-Cyano-4-hydroxy-7-phenoxyisoquinoline-3-carboxamido)-2-(methoxycarbonylamino)butanoic acid], the IC50 in test [1] (setting [3]) came to 0.24 µM; in test [2] (setting [5]) it was 1.4 µM. In test [1] (setting [4]), the PHD2/PHD1 amounted to 5.8.
In the case of `CN(C)C(=O)N[C@H](CCNC(=O)c1nc(C#N)c2cc(Oc3ccccc3)ccc2c1O)C(=O)O` [Compound 54, (R)-4-(1-Cyano-4-hydroxy-7-phenoxyisoquinoline-3-carboxamido)-2-(3,3-dimethylureido)butanoic acid], the figures for the IC50 in test [1] (setting [3]) and in test [2] (setting [5]) were 1.81 µM and 11 µM, respectively. Also, the PHD2/PHD1 in test [1] (setting [4]) was 6.1.
For the compound `N#Cc1nc(C(=O)NCC[C@@H](NC(N)=O)C(=O)O)c(O)c2ccc(Oc3ccccc3)cc12` [Compound 55, (R)-4-(1-Cyano-4-hydroxy-7-phenoxyisoquinoline-3-carboxamido)-2-ureidobutanoic acid], the figures for the IC50 in test [1] (setting [3]) and in test [2] (setting [5]) were 1.1 µM and 9.1 µM, respectively. For the same compound, the PHD2/PHD1 in test [1] (setting [4]) was 8.
On to `N#Cc1nc(C(=O)NCCC(=O)C(=O)O)c(O)c2ccc(Oc3ccccc3)cc12` [Compound 56, 4-(1-Cyano-4-hydroxy-7-phenoxyisoquinoline-3-carboxamido)-2-oxobutanoic acid], for which the IC50 in test [1] (setting [3]) stood at 0.26 µM; in test [2] (setting [5]), 1.8 µM. In addition, the PHD2/PHD1 in test [1] (setting [4]) amounted to 7.
Consider `CCC(CNC(=O)c1nc(C#N)c2cc(Oc3ccccc3)ccc2c1O)C(=O)O` (centres unmarked) [Compound 57, 2-((1-Cyano-4-hydroxy-7-phenoxyisoquinoline-3-carboxamido)methyl)butanoic acid], for which the IC50 was found to be 0.54 µM in test [1] (setting [3]) and 5.1 µM in test [2] (setting [5]). The PHD2/PHD1 in test [1] (setting [4]) stood at 9.
`CCC(C)(CNC(=O)c1nc(C#N)c2cc(Oc3ccccc3)ccc2c1O)C(=O)O` (centres unmarked) [Compound 58, 2-{[(1-Cyano-4-hydroxy-7-phenoxy-isoquinoline-3-carbonyl)-amino]-methyl}-2-methyl-butyric acid]: the IC50 in test [1] (setting [3]) came out at 1.1 µM; in test [2] (setting [5]), 12.3 µM. In addition, the PHD2/PHD1 in test [1] (setting [4]) is 11.
Turning to `CC(C)(CNC(=O)c1nc(C#N)c2cc(Oc3ccc4ccccc4c3)ccc2c1O)C(=O)O` [Compound 59, 3{-[1-Cyano-4-hydroxy-7-(naphthalen-2-yloxy)-isoquinoline-3-carbonyl]-amino}-2,2-dimethyl-propionic acid], the IC50 in test [1] (setting [3]) was determined as 0.13 µM; in test [2] (setting [5]), 0.86 µM. Also, in test [1] (setting [4]), the PHD2/PHD1 was found to be 6.5.
For `COc1ccccc1Oc1ccc2c(O)c(C(=O)NCC(C)(C)C(=O)O)nc(C#N)c2c1` [Compound 60, 3{-[1-Cyano-4-hydroxy-7-(2-methoxy-phenoxy)-isoquinoline-3-carbonyl]-amino}-2,2-dimethyl-propionic acid], the IC50 in test [1] (Table 1, average of multiple independent measurements, read-out: IC50 (μM) PHD1 avg.) is 1.04 µM; in test [1] (setting [3]), 1 µM and 1.08 µM; in test [2] (average of multiple independent measurements, read-out: IC50 (μM) PHD2 avg.) it was 7.23 µM; in test [2] (setting [5]), 3.65 µM and 10.8 µM. The PHD2/PHD1 avg. in test [1] (Table 1, average of the ratios of multiple independent measurements) was 6.8 avg.
With `CC(C)C(CC(=O)O)NC(=O)c1nc(C#N)c2cc(Oc3ccccc3)ccc2c1O` (centres unmarked) [Compound 61, 3-[(1-Cyano-4-hydroxy-7-phenoxy-isoquinoline-3-carbonyl)-amino]-4-methyl-pentanoic acid], the PHD2/PHD1 in test [1] came to 6. Moreover, the values for the IC50 in test [1] (read-out: IC50 (μM) PHD1) and in test [2] (setting [5]) were 33.3 µM and above 200 µM, respectively.
Consider `CCc1ccccc1Oc1ccc2c(O)c(C(=O)NCC(C)(C)C(=O)O)nc(C#N)c2c1` [Compound 62, 3{-[1-Cyano-7-(2-ethyl-phenoxy)-4-hydroxy-isoquinoline-3-carbonyl]-amino}-2,2-dimethyl-propionic acid], for which the IC50 in test [1] (setting [3]) was determined as 0.48 µM; in test [2] (setting [5]) it was 3.06 µM. Further, the PHD2/PHD1 in test [1] (setting [4]) is reported as 6.

Source of the values: patent publication US9409892B2, “4-hydroxy-isoquinoline compounds as HIF hydroxylase inhibitors” (FIBROGEN, INC., priority 2012, dated 2016).
